In general, IC50 refers to the concentration at which inhibition is half-maximal. A low value points to inhibition by little substance.

The experiment deals with Lanosterol 14-alpha demethylase (Candida albicans) (UniProt P10613). The experiment in a line: In vitro inhibition of Lanosterol 14-alpha demethylase (Candida albicans CY1005).
Chain of Lanosterol 14-alpha demethylase (Candida albicans) (P10613 whole entry, looked up): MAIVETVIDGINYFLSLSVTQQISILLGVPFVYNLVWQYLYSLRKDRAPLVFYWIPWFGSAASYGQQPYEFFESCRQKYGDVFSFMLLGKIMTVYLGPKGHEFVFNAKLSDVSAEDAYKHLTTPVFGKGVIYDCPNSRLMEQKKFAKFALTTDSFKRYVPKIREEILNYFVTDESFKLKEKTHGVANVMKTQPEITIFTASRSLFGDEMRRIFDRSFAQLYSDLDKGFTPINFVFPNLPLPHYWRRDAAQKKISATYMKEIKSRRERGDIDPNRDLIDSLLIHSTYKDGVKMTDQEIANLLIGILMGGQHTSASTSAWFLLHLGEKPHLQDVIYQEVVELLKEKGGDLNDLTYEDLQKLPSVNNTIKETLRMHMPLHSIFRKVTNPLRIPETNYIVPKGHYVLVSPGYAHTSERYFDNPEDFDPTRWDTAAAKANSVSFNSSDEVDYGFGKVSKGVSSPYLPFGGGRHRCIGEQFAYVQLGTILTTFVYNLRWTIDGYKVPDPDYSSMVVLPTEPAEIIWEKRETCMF
Compound `CCc1ccc(CC[C@@H]2CCC(C)(C)[C@H](OC)[C@H]2Cn2ccnc2)cc1` showed an IC50 of 90.3 nM.

The compound `CCCCCCC/C=C/C[C@@H]1OC[C@H](C)[C@H](OC)[C@H]1COC(=O)CN` displayed an IC50 of 225 nM. This IC50 lies about 2.5-fold higher than the previous one.

Turning to `CC[C@@H](C)n1ncn(-c2ccc(N3CCN(c4ccc(OC[C@H]5CO[C@](Cn6cncn6)(c6ccc(Cl)cc6Cl)O5)cc4)CC3)cc2)c1=O` [ITRAZOLE], the IC50 came to 85 nM.

The values above are taken from BindingDB's records for doi:10.1016/S0960-894X(01)80190-6 (n/a, 1994).
